Our source for the Ki values is US6221914A, “Sulfonamide bridging compounds that inhibit tryptase activity” (Array Biopharma Inc., priority 1998, dated 2001).

As a reminder, the Ki is a dissociation constant, usually derived from enzyme kinetics or from competition with a known ligand.

Format in all cases: biochemical
In experiment [1] the target is Human lung tryptase. As to the kind of experiment: Ki determination, human lung tryptase (Tosyl-Gly-Pro-Arg-pNA substrate). The settings on record: 50 mM Tris-HCl pH 8.0, 37° C., 1 nM tryptase, 320 μM GPR-pNA; read-out: Experimentally Determined Ki, Tryptase. The protocol: (§1) Protease inhibition was assayed according to published procedures with minor modifications using various proteases and specific chromogenic peptide p-nitroanilide substrates. Assays were performed in Costar ultra-low cluster 96-well microtiter plate (Costar Corning Corp., Cambridge Mass.). Each protease was incubated with various concentrations of the test compound for 15 min. at 37° C. or as otherwise indicated, in specific assay buffer, and the residual activity was then measured by addition of the substrate. p-Nitroaniline produced by the proteolysis was determined by measuring the change in absorbance at 405 nm on a SpectraMAX 340 plate reader (Molecular devices, Sunnyvale, Calif.).
(§2) 1. The inhibition constant, Ki is calculated from individual data points using the equation for a tight-binding inhibitor (See Beith, "Proteinase Inhibitors-Proceedings of 2nd Int. Res. Conference", Fritz, et al. eds, New York, p.4463-4469 (1974)):
(§3) vi /vo [((Ki '+[I]+[E]o)^2 -4 [I]o
(§4) [E]o)^1/2 (Ki '+[I]o -[E]o)]/2[E]o
(§5) where Ki ' is apparent inhibition constant; vi and vo are the inhibited and uninhibited rates, respectively; [I]o and [E]o are the total concentrations of inhibitor and enzyme, respectively.
(§6) [note: [E]o is determined by active site titration of enzyme]
(§7) The Ki values are obtained by correcting Ki ' values for the effect of substrate concentration according to: [formula]
(§8) 2. Other inhibition data (Ki >>[E]o), the Ki is calculated from using the equations for a competitive inhibitor: [formula]
Human lung tryptase purchased from Cortex Biochem (San Leandro, Calif.) was purified further on a Superdex 200 gel-filtration column. The active-site concentration of the enzyme was determined by spectrophotometric titration with 4-nitrophenyl 4'-guanidinobenzoate according to Schwartz, et al., J. Immunol., 114, 2304-2311 (1990). Tryptase activity was measured according to the procedures of Schwartz, et al., J. Biol. Chem., 261, 7372-7379 (1986) (See also, Schwartz, L. B., Methods In Enzymology, 244, 88 (1994)) with minor modifications, using Tosyl-Gly-Pro-Arg-p-nitroanilide ("GPR-pNA", Sigma Chemical Co., St. Louis, Mo., T-1637) as a chromogenic substrate. The reaction was performed in 50 mM Tris-HCl, pH 8.0, containing 150 mM NaCl and 0.02% Triton X-100 at 37° C. in Costar ultra-low cluster 96-well microtiter plates (Costar Corning Corp., Cambridge, Mass.). The amount of pNA produced by tryptase was determined by measuring the change in absorbance at 405 nm on a SpectraMAX 340 plate reader (Molecular devices, Sunnyvale, Calif.). The Km for the substrate was determined by Lineweaver-Burk analysis from initial velocities of substrate hydrolysis. The inhibition assay was carried out in a total volume of 200 μL. Tryptase (30 μL- final concentration 1 nM) was incubated with various concentrations of sample compound (50 μL) to be tested in the above assay buffer for 5 min. The reaction was started by the addition of substrate GPR-pNA (40 μL-final concentration 320 μM), and the residual activity was measured after 15 min. of incubation. The inhibition constant, Ki, was determined by fitting the inhibition data to a two-site competitive binding equation using data analysis program GraphPad PRISM (GraphPad Software, Inc., San Diego, Calif.).
(§9) The inhibition constant (Ki) of the test compounds against each proteolytic enzyme was determined according to Zitnik et al., Biochem. Biophys. Res. Commun. 232, 687-697 (1997)).

The target in experiment [2] is T1, Bovine pancreatic Trypsin (Bos taurus, UniProt P00760).
T1 construct: from tissue; host or cells: bovine pancreas
T1 sequence (P00760 24-246): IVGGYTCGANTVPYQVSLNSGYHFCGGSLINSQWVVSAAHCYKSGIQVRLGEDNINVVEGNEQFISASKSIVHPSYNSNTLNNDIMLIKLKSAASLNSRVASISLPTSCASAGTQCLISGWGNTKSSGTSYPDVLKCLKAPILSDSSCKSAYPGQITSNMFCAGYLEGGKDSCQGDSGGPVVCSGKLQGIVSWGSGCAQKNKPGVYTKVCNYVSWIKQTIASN
Kind of experiment: Ki determination, bovine pancreatic trypsin (N-a-Benzoyl-L-Arg-pNA). The settings on record: 50 mM Tris-HCl, pH 8.2, 20 mM CaCl2; read-out: Experimentally Determined Ki, Trypsin. The protocol: as §1, §2, §3, §4, §5, §6, §7, §8
Bovine pancreatic Trypsin (TPCK-treated) activity was determined by using N-a-Benzoyl-L-Arg-pNA in 50 mM Tris-HCl, pH 8.2, 20 mM CaCl2 (See Somorin, et al., J. Biochem. 85, 157-162 (1979)).
as §9

Experiment [3] concerns the target T2, Human plasma thrombin (Homo sapiens, UniProt P00734).
T2 construct: from tissue; host or cells: human plasma
As to the kind of experiment: Ki determination, human plasma thrombin (H-D-Phe-Pip-Arg-pNA). The note with it: 50 mM Tris-HCl, pH 8.3, 100 mM NaCl, 1% BSA; read-out: Experimentally Determined Ki, Thrombin. The protocol: as §1, §2, §3, §4, §5, §6, §7, §8
Human plasma thrombin activity was determined by using H-D-Phe-Pip-Arg-pNA in 50 mM Tris-HCl, pH 8.3, 100 mM NaCl, 1% BSA (See Lottenberg, et al. Meth. Enzymol. 80, 341-361 (1981)).
as §9

Experiment [4] has as its target r-tissue kallikrein (Homo sapiens, UniProt P06870). Kind of experiment: Ki determination, r-tissue kallikrein (DL-Val-Leu-Arg-pNA). The note with it: 50 mM Tris-HCl, pH 7.8, 200 mM NaCl, 0.05% BSA; read-out: Experimentally Determined Ki, Tissue Kallikrein. The protocol: as §1, §2, §3, §4, §5, §6, §7, §8
I. Human Plasma and r-Tissue Kallikrein
Human plasma and r-tissue kallikrein activity were determined in 50 mM Tris-HCl, pH 7.8, 200 mM NaCl, 0.05% BSA by using H-D-Prolyl-Phe-Arg-pNA and DL-Val-Leu-Arg-pNA, respectively (See Lottenberg, et al., Meth. Enzymol. 80, 341-361 (1981)).
as §9

The target of experiment [5] is T3, Bovine Pancreatic Chymotrypsin (Bos taurus, UniProt P00766).
T3 construct: from tissue; host or cells: bovine pancreas
As to the kind of experiment: Ki determination, bovine pancreatic chymotrypsin (N-Suc-Ala-Ala-Pro-Phe-pNA). The note with it: 100 mM Tris-HCl, pH 7.8, 10 mM CaCl2; read-out: Experimentally Determined Ki, Chymotrypsin. The protocol:
as §1, §2, §3, §4, §5, §6, §7, §8
Bovine Pancreatic Chymotrypsin activity was determined by using N-Suc-Ala-Ala-Pro-Phe-pNA in 100 mM Tris-HCl, pH 7.8, 10 mM CaCl2 (See Delmar, et al., J. Biochem. 85, 157-162 (1979)).
as §9

Sequence of r-tissue kallikrein (P06870 25-262): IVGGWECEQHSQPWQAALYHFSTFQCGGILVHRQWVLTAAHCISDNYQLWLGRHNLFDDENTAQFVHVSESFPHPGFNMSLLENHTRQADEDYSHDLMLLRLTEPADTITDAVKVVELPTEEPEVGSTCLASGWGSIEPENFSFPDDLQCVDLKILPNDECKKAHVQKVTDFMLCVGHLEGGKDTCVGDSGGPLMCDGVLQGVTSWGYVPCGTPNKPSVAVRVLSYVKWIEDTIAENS

With `N=C(N)c1cccc(C(=O)NCc2ccc(OCCOc3ccc(CNC(=O)c4cccc(C(=N)N)c4)cc3)cc2)c1` [Example 65, 1,2-Bis-{4-[(3-carbamimidoyl-benzoylamino)-methyl]-phenoxy}-ethane], the inhibitory constant (Ki) is 0.35 µM in experiment [1]; 2.2 µM in experiment [2]; > 100 µM in experiment [3]; > 100 µM in experiment [4]; > 100 µM in experiment [5].

With `N=C(N)c1cccc(S(=O)(=O)NCc2ccc(OCCCCOc3ccc(CNS(=O)(=O)c4cccc(C(=N)N)c4)cc3)cc2)c1` [Example 47, 1,4-Bis-{4-[(3-carbamimidoyl-benzenesulfonylamino)-methyl]-phenoxy}-butane], the Ki was 0.03 µM in experiment [1]; 1.8 µM in experiment [2]; > 100 µM in experiment [3]; > 100 µM in experiment [4]; > 100 µM in experiment [5].

Take `N=C(N)c1cccc(S(=O)(=O)NCc2ccc(OCCCCCOc3ccc(CNS(=O)(=O)c4cccc(C(=N)N)c4)cc3)cc2)c1` [Example 41, 1,5-Bis-{4-[(3-carbamimidoyl-benzenesulfonylamino)-methyl]-phenoxy}-pentane]: the inhibitory constant (Ki) in experiment [1] was 0.08 µM; in experiment [2] it was 2.5 µM; in experiment [3], > 100 µM; in experiment [4] it was > 100 µM; in experiment [5], > 100 µM.

Regarding `N=C(N)c1ccc(C(=O)NCc2ccc(OCCCOc3ccc(CNC(=O)c4ccc(C(=N)N)cc4)cc3)cc2)cc1` [Example 62, 1,3-Bis-{4-[(4-carbamimidoyl-benzoylamino)-methyl]-phenoxy}-propane], the inhibitory constant (Ki) in experiment [1] was 0.0005 µM; in experiment [2] it was 2.4 µM; in experiment [3], > 100 µM; in experiment [4], > 100 µM; in experiment [5], > 100 µM.

For the compound `N=C(N)c1ccc2[nH]c(CC(=O)NCc3ccc(OCCCCCOc4ccc(CNC(=O)Cc5nc6cc(C(=N)N)ccc6[nH]5)cc4)cc3)nc2c1` [Example 108], the Ki in experiment [1] was 0.009 µM; in experiment [2], 3.6 µM; in experiment [3], > 100 µM; in experiment [4], > 100 µM; in experiment [5] it was > 100 µM.

Turning to `N=C(N)c1ccc2cc(C(=O)NCc3ccc(OCCOc4ccc(CNC(=O)c5ccc6cc(C(=N)N)ccc6c5)cc4)cc3)ccc2c1` [Example 100, 1,2-Bis-{4-[(6-carbamimidoylnaphthalene-2-carbonylamino)-methyl]-phenoxy}-ethane], the Ki in experiment [1] is 0.0002 µM; in experiment [2], 0.15 µM; in experiment [3] it was > 100 µM; in experiment [4], > 100 µM; in experiment [5], 18 µM.

`N=C(N)c1cccc(C(=O)NCc2ccc(OCCCCCCCOc3ccc(CNC(=O)c4cccc(C(=N)N)c4)cc3)cc2)c1` [Example 59, 1,7-Bis-{4-[(3-carbamimidoyl-benzenecarbonylamino)-methyl]-phenoxy}-heptane]: the Ki in experiment [1] was 0.08 µM; in experiment [2], 1.1 µM; in experiment [3], > 100 µM; in experiment [4], > 100 µM; in experiment [5], > 100 µM.

With `N=C(N)c1ccc(C(=O)NCc2ccc(OCCCOc3ccc(CNC(=O)c4ccc(CN)cc4)cc3)cc2)cc1` [Example 87, N-[4-(3-{4-[(4-Aminomethyl-benzoylamino)-methyl]-phenoxy}-propoxy)-benzyl]-4-carbamimidoyl-benzamide], the Ki in experiment [1] is 0.002 µM; in experiment [2], 2.8 µM; in experiment [3], > 100 µM; in experiment [4], > 100 µM; in experiment [5], > 100 µM.

As to `N=C(N)c1cccc(C(=O)NCc2ccc(OCCCOc3ccc(CNC(=O)c4cccc(C(=N)N)c4)cc3)cc2)c1` [Example 63, 1,3-Bis-{4-[(3-carbamimidoyl-benzoylamino)-methyl]-phenoxy}-propane], the inhibition constant Ki was 0.02 µM in experiment [1]; 2.4 µM in experiment [2]; > 100 µM in experiment [3]; > 100 µM in experiment [4]; > 100 µM in experiment [5].

On to `N=C(N)c1ccc(C(=O)NCc2ccc(OCCCCCOc3ccc(CNC(=O)c4ccc(C(=N)N)cc4)cc3)cc2)cc1` [Example 54, 1,5-Bis-{4-[(4-carbamimidoyl-benzenecarbonylamino)-methyl]-phenoxy}-pentane], for which the inhibition constant (Ki) in experiment [2] is 0.91 µM; in experiment [3], > 100 µM; in experiment [4], > 100 µM; in experiment [5] it was > 100 µM.

On to `N=C(N)c1ccc2[nH]c(CC(=O)NCc3ccc(OCCCOc4ccc(CNC(=O)Cc5nc6cc(C(=N)N)ccc6[nH]5)cc4)cc3)nc2c1` [Example 107, 2-(5-Carbamimidoyl-1H-benzoimidazol-2-yl)-N-{4,-[3-(4-{2-(5-carbamimidoyl-1H-benzoimidazol-2-yl)acetylaminol-methyl}-phenoxy)-propoxy]-benzyl}-acetamide], for which the Ki in experiment [1] is 0.012 µM; in experiment [2], 4.8 µM; in experiment [3] it was > 100 µM; in experiment [4] it was > 100 µM; in experiment [5], 26 µM.

Turning to `N=C(N)c1ccc(C(=O)NCc2ccc(OCCCCCCOc3ccc(CNC(=O)c4ccc(C(=N)N)cc4)cc3)cc2)cc1` [Example 56, 1,6-Bis-{4-[(4-carbamimidoyl-benzenecarbonylamino)-methyl]-phenoxy}-hexane], the inhibitory constant (Ki) in experiment [2] is 1.3 µM; in experiment [3], > 100 µM; in experiment [4], > 100 µM; in experiment [5] it was > 100 µM.

On to `N=C(N)c1ccc(S(=O)(=O)NCc2ccc(OCCCOc3ccc(CNS(=O)(=O)c4ccc(C(=N)N)cc4)cc3)cc2)cc1` [Example 50, 1,3-Bis-{4-[(4-carbamimidoyl-benzenesulfonylamino)-methyl]-phenoxy}-propane], for which the inhibition constant (Ki) is 0.8 µM in experiment [1], > 100 µM in experiment [3], > 100 µM in experiment [4] and 6.3 µM in experiment [5].
